Results from ChEMBL document CHEMBL4765434, “Pyrrolo[2,3-d]pyrimidine derivatives as inhibitors of RET: Design, synthesis and biological evaluation” (Eur J Med Chem, 2020).
Active and inactive are the calls of the source. The rule behind the calls is not given here.

Columns and labels:
[1] = molecular target: T1, Proto-oncogene tyrosine-protein kinase receptor Ret (Homo sapiens, UniProt P07949); assay: Inhibition of recombinant human GST-tagged RET cytoplasmic domain (658 to 1114 residues) expressed in baculovirus expression system using 5-FAM-EEPLYWSFPAKKK-CONH2 as substrate preincubated for 60 mins followed by substrate addition by microfluidic assay
LC-2-ad [2] = assay: Growth inhibition of human LC-2-ad cells measured after 3 days by resazurin staining based fluorescence assay; format: functional; details: 72 h, time 3 day
[3] = molecular target: T2, Serine/threonine-protein kinase Nek2 (Homo sapiens, UniProt P51955); assay: Inhibition of Nek2 (unknown origin)
T2 sequence (P51955 whole entry): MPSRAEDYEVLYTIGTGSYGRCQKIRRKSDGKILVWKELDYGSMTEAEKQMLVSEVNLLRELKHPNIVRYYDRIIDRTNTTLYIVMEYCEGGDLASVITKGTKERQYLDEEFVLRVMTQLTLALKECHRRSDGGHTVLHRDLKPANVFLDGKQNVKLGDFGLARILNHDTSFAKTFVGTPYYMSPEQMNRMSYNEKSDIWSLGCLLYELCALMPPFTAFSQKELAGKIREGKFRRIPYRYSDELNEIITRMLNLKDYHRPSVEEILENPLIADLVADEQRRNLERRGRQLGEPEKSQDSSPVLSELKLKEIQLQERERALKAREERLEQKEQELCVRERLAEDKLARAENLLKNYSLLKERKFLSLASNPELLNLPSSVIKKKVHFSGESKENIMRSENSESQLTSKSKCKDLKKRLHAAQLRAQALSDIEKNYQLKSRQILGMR

[4] = molecular target: Mitogen-activated protein kinase kinase kinase 14 (Homo sapiens, UniProt Q99558); assay: Inhibition of NIK (unknown origin)
Aurora kinase A = molecular target: T3, Aurora kinase A (Homo sapiens, UniProt O14965); assay: Inhibition of Aurora A (unknown origin)
T3 sequence (O14965 whole entry): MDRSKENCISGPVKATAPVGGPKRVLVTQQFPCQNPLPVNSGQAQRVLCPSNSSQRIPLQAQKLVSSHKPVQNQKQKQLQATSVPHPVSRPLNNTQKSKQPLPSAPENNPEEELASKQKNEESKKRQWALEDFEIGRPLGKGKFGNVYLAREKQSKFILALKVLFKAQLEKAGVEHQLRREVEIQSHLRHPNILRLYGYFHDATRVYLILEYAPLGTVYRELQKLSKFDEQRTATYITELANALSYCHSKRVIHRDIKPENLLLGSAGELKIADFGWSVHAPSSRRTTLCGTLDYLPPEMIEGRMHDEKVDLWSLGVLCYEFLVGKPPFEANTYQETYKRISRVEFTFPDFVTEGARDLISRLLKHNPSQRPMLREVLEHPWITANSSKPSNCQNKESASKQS

LC-2-ad [5] = assay: Inhibition of cell migration in human LC-2-ad cells assessed as migrated distance at 3 uM measured after 52 hrs by microscopic method (reference value: 819.01 +/- 65.76 micrometer); format: functional
Aurora kinase B = Aurora kinase B (Homo sapiens, UniProt Q96GD4); assay: Inhibition of Aurora B (unknown origin)
[6] = molecular target: Mitogen-activated protein kinase kinase kinase kinase 4 (Homo sapiens, UniProt O95819); assay: Inhibition of MAP4K4 (unknown origin)
[7] = molecular target: T1, Proto-oncogene tyrosine-protein kinase receptor Ret; assay: Non competitive inhibition of recombinant human GST-tagged RET cytoplasmic domain (658 to 1114 residues) expressed in baculovirus expression system at 3.125 to 50 nM using 5-FAM-EEPLYWSFPAKKK-CONH2 as substrate by Lineweaver-burk plot analysis; details: dose 3.125-50 nM
[8] = molecular target: Macrophage colony-stimulating factor 1 receptor (Homo sapiens, UniProt P07333); assay: Inhibition of CSF1R (unknown origin)
[9] = molecular target: Proto-oncogene tyrosine-protein kinase receptor Ret (Homo sapiens, UniProt P07949, V804M); assay: Inhibition of recombinant human N-terminal GST-HIS6 fused RET V804M mutant (658 to 1114 residues) expressed in Sf9 insect cells using 5-FAM-EEPLYWSFPAKKK-CONH2 as substrate preincubated for 60 mins followed by substrate addition by microfluidic assay
[10] = molecular target: T1, Proto-oncogene tyrosine-protein kinase receptor Ret; assay: Non ATP-competitive inhibition of recombinant human GST-tagged RET cytoplasmic domain (658 to 1114 residues) expressed in baculovirus expression system at 3.125 to 50 nM using 5-FAM-EEPLYWSFPAKKK-CONH2 as substrate; details: dose 3.125-50 nM
[11] = molecular target: Epidermal growth factor receptor (Homo sapiens, UniProt P00533); assay: Inhibition of EGFR (unknown origin)
LC-2-ad [12] = assay: Inhibition of cell migration in human LC-2-ad cells assessed as migrated distance at 1 uM measured after 52 hrs by microscopic method (reference value: 819.01 +/- 65.76 micrometer); format: functional

Sequence of Proto-oncogene tyrosine-protein kinase receptor Ret (Homo sapiens, UniProt P07949, V804M) (P07949 29-1114 V804M limits assumed): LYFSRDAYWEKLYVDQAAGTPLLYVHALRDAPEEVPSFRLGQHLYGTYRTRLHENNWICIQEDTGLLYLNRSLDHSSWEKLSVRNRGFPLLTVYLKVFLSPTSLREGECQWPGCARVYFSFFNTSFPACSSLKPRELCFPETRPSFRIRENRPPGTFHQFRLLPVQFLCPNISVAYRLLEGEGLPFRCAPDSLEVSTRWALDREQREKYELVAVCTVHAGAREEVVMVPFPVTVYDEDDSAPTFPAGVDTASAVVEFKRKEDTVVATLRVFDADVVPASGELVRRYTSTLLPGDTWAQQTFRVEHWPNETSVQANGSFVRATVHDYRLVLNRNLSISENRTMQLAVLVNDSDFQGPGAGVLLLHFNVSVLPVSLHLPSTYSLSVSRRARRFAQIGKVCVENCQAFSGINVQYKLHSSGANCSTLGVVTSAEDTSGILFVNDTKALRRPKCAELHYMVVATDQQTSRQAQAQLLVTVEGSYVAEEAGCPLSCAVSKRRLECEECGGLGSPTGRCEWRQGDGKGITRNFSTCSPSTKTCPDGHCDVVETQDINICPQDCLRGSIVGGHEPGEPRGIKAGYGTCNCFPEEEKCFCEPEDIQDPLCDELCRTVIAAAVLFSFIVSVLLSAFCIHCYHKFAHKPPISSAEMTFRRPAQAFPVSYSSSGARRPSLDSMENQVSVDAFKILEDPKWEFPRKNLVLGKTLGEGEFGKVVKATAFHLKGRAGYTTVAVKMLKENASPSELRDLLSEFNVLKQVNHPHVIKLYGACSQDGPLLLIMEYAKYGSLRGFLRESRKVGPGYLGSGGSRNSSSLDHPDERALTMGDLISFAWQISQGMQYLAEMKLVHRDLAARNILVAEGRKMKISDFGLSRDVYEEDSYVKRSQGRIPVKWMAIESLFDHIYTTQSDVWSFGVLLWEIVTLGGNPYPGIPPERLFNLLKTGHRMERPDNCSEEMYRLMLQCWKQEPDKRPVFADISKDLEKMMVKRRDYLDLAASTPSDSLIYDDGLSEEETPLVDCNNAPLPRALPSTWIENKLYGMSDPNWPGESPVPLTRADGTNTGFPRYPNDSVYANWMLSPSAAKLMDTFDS
T1 sequence (P07949 whole entry, the tested form may be a part): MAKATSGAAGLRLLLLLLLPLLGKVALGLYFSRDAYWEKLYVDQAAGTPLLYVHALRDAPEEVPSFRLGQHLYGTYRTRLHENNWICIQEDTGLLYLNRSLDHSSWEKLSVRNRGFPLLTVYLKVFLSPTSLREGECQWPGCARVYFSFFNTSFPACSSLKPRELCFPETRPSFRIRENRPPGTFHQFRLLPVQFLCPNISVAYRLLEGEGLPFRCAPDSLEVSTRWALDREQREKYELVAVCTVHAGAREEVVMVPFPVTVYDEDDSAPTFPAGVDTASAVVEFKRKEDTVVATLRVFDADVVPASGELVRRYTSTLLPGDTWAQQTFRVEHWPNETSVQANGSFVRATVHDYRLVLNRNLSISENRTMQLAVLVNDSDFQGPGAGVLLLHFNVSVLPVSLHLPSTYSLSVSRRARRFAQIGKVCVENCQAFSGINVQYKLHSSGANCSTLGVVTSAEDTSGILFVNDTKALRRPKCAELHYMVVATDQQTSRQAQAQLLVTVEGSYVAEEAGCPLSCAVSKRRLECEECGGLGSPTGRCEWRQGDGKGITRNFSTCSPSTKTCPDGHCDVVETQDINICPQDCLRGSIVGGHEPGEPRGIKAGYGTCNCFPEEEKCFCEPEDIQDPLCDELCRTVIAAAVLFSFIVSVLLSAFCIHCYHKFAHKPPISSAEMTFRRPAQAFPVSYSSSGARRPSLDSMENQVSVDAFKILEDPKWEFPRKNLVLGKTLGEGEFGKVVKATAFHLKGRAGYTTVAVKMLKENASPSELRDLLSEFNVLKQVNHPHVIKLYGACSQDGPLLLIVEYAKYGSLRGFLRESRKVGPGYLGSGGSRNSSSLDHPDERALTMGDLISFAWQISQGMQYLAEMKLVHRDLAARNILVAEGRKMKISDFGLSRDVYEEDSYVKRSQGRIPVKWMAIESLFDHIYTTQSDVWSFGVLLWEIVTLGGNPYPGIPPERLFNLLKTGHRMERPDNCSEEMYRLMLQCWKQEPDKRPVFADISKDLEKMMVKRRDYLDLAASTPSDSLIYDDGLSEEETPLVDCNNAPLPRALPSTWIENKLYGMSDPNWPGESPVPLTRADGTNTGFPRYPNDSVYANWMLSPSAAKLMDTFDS
Sequence of Mitogen-activated protein kinase kinase kinase kinase 4 (O95819 whole entry, the tested form may be a part): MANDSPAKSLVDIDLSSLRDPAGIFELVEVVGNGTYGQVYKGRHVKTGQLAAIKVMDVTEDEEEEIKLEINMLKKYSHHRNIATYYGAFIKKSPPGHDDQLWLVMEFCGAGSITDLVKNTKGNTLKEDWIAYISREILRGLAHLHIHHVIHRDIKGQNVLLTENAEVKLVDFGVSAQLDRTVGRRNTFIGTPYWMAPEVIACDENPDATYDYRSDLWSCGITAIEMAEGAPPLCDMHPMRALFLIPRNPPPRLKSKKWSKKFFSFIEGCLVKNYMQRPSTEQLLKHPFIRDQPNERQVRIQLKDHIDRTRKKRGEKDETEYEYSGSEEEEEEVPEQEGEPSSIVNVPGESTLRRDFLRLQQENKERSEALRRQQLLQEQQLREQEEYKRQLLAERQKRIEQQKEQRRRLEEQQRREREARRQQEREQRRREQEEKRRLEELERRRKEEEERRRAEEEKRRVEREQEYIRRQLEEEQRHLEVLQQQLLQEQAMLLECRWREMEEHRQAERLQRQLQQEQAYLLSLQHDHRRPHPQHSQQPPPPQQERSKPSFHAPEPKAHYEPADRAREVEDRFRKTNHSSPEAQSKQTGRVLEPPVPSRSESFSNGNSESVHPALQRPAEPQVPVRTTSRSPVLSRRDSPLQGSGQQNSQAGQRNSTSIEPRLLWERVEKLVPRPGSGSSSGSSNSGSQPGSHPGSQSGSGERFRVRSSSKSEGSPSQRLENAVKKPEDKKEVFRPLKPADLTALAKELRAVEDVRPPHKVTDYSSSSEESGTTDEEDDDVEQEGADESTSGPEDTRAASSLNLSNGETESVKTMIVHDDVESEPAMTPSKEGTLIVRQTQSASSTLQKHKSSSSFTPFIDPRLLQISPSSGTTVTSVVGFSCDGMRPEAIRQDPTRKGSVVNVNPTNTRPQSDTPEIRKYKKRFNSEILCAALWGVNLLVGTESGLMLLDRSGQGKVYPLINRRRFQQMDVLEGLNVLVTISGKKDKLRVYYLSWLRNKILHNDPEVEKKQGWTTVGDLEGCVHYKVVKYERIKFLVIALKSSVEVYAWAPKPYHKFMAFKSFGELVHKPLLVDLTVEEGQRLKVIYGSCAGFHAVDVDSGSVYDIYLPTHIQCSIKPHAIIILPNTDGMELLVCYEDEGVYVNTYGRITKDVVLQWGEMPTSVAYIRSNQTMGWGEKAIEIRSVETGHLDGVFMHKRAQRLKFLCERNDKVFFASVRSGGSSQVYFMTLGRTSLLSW
Sequence of Macrophage colony-stimulating factor 1 receptor (P07333 whole entry, the tested form may be a part): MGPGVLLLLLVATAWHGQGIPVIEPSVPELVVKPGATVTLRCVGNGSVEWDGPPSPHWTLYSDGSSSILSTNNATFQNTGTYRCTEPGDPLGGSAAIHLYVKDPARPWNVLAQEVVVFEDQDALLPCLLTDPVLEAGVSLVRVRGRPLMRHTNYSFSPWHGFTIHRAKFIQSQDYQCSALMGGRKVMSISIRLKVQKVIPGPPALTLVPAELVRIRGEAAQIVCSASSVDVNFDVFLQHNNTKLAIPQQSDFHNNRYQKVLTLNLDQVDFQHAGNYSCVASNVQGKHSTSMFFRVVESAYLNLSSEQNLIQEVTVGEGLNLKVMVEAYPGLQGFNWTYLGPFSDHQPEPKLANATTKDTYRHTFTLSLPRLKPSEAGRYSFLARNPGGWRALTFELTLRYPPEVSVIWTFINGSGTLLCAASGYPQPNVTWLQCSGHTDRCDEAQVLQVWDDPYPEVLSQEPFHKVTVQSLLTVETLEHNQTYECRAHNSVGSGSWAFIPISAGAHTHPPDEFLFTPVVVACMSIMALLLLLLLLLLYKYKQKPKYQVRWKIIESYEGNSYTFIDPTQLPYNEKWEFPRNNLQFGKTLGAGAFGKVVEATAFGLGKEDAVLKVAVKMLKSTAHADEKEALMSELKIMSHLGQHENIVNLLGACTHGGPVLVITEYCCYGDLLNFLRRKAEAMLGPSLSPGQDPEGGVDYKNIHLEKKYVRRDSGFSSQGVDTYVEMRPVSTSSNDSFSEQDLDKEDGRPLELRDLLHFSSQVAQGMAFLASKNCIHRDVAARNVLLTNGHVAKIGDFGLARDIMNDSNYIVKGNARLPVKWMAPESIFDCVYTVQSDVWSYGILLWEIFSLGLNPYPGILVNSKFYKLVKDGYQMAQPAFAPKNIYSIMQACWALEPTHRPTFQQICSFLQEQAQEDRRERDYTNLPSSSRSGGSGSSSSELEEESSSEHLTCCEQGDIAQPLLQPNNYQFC
Sequence of Aurora kinase B (Q96GD4 whole entry): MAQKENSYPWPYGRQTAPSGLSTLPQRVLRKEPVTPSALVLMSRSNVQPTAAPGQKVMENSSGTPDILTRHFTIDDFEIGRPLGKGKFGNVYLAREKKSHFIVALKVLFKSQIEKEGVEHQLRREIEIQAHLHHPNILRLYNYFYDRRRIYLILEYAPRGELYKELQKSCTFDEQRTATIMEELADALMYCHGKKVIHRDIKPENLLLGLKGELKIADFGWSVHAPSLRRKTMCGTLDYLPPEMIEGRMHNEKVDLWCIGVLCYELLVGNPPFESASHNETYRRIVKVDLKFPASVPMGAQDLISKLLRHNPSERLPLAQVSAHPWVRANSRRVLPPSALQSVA

SMILES	IC50 [1] [µM]	other results
Cn1nc(C(C)(C)C)cc1NC(=O)Cc1ccc(Nc2ncnc3[nH]c(-c4ccsc4)cc23)cc1	0.052	
CC(C)c1ccc(NC(=O)Cc2ccc(Nc3ncnc4[nH]ccc34)cc2)cc1	7.69	GI50 (LC-2-ad [2]): 29.6 µM
CC(C)(C)c1cc(NC(=O)Cc2ccc(Nc3ncnc4[nH]c(-c5ccsc5)cc34)cc2)no1	0.05	GI50 (LC-2-ad [2]): 0.18 µM
CC(C)(C)c1cc(NC(=O)Cc2cccc(Nc3ncnc4[nH]ccc34)c2)no1	31.6	GI50 (LC-2-ad [2]): 43.7 µM
CC(C)c1ccc(NC(=O)Cc2ccc(Nc3ncnc4[nH]c(-c5cnn(C)c5)cc34)cc2)cc1	> 20	
CC(C)(C)c1ccc(NC(=O)Cc2ccc(Nc3ncnc4[nH]ccc34)cc2)cc1	15.8	
O=C(Cc1ccc(Nc2ncnc3sccc23)cc1)Nc1cccc(F)c1	> 20	
Cn1cc(-c2cc3c(Nc4ccc(CC(=O)Nc5cc(C(C)(C)C)nn5C)cc4)ncnc3s2)cn1	1.39	
O=C(Cc1ccc(Nc2ncnc3[nH]ccc23)cc1)Nc1cccc2ncccc12	19	
O=C(Cc1ccc(Nc2ncnc3[nH]ccc23)cc1)Nc1ccc(C(F)(F)F)c(Cl)c1	> 20	
O=C(Cc1ccc(Nc2ncnc3[nH]ccc23)cc1)Nc1ccc2c(c1)OCO2	> 20	
Cn1nc(C(C)(C)C)cc1NC(=O)Cc1ccc(Nc2ncnc3[nH]c(-c4ccc(S(C)(=O)=O)cc4)cc23)cc1	0.009	
CS(=O)(=O)c1ccc(NC(=O)Cc2ccc(Nc3ncnc4[nH]ccc34)cc2)cc1	> 20	
O=C(Cc1ccc(Nc2ncnc3[nH]ccc23)cc1)NCc1ccccc1	4.65	
CC(C)(C)c1cc(NC(=O)Cc2ccc(Nc3ncnc4[nH]c(-c5ccc(S(C)(=O)=O)cc5)cc34)cc2)no1	0.0068	IC50 [3]: > 200 µM; IC50 [4]: > 10 µM; IC50 (Aurora kinase A): 242 nM; Activity (LC-2-ad [5]): 356.41 um; IC50 (Aurora kinase B): 536 nM; IC50 [6]: 3.43 µM; inhibition [7]: Active; IC50 [8]: 1650 nM; GI50 (LC-2-ad [2]): 0.107 µM; IC50 [9]: 13.5 nM; inhibition [10]: Active; IC50 [11]: 56.8 µM
Cn1nc(C(C)(C)C)cc1NC(=O)Cc1ccc(Nc2ncnc3[nH]ccc23)cc1	0.127	GI50 (LC-2-ad [2]): 1.65 µM
CC(C)(C)c1ccc(-c2cc3c(Nc4ccc(CC(=O)Nc5cccc(F)c5)cc4)ncnc3[nH]2)cc1	> 20	
COc1ccc(-c2cc3c(Nc4ccc(CC(=O)Nc5ccc(F)cc5)cc4)ncnc3[nH]2)cc1	> 20	
O=C(Cc1ccc(Nc2ncnc3[nH]ccc23)cc1)NC1CC1	2.37	GI50 (LC-2-ad [2]): 14 µM
Cn1cc(-c2cc3c(Nc4ccc(CC(=O)Nc5cc(C(C)(C)C)on5)cc4)ncnc3[nH]2)cn1	0.009	GI50 (LC-2-ad [2]): 0.136 µM; IC50 [9]: 63.5 nM
Cn1nc(C(C)(C)C)cc1NC(=O)Cc1cccc(Nc2ncnc3[nH]ccc23)c1	39.6	

SMILES	IC50 [1] [µM]	other results
Cn1cc(-c2cc3c(Nc4ccc(CC(=O)Nc5cc(C(C)(C)C)nn5C)cc4)ncnc3[nH]2)cn1	0.021	IC50 [9]: 72.8 nM
COc1cc(NC(=O)Cc2ccc(Nc3ncnc4[nH]ccc34)cc2)cc(OC)c1OC	47.6	
O=C(Cc1ccc(Nc2ncnc3[nH]c(-c4ccsc4)cc23)cc1)Nc1cccc(F)c1	> 20	
O=C(Cc1ccc(Nc2ncnc3[nH]ccc23)cc1)Nc1ccc(OC(F)(F)F)cc1	> 20	
COc1ccc(-c2cc3c(Nc4ccc(CC(=O)Nc5ccc(C(C)C)cc5)cc4)ncnc3[nH]2)cc1	2.44	
O=C(Cc1ccc(Nc2ncnc3[nH]ccc23)cc1)Nc1cccc(C(F)(F)F)c1	16.2	GI50 (LC-2-ad [2]): 33.5 µM
CC(C)(C)c1cc(NC(=O)Cc2ccc(Nc3ncnc4[nH]ccc34)cc2)no1	0.076	GI50 (LC-2-ad [2]): 1.26 µM
COc1cc2nccc(Oc3ccc(NC(=O)C4(C(=O)Nc5ccc(F)cc5)CC4)cc3)c2cc1OC [CABOZANTINIB]		Activity (LC-2-ad [12]): 287.3 um
Cn1nc(C(C)(C)C)cc1NC(=O)Cc1ccc(Nc2ncnc3sccc23)cc1	1.06	GI50 (LC-2-ad [2]): 17.5 µM
Cn1ccc2c(Nc3ccc(CC(=O)Nc4cc(C(C)(C)C)on4)cc3)ncnc21	3.51	
O=C(Cc1ccc(Nc2ncnc3[nH]ccc23)cc1)Nc1cccc(F)c1	> 20	
COc1ccc(-c2cc3c(Nc4ccc(CC(=O)Nc5cccc(F)c5)cc4)ncnc3[nH]2)cc1	> 20	
Cn1nc(C(C)(C)C)cc1NC(=O)Cc1ccc(Nc2ncnc3c2ccn3C)cc1	3.93	GI50 (LC-2-ad [2]): 36.4 µM
Cn1cc(-c2cc3c(Nc4ccc(CC(=O)Nc5cccc(F)c5)cc4)ncnc3[nH]2)cn1	> 20	
CC(=O)c1ccc(-c2cc3c(Nc4ccc(CC(=O)Nc5cc(C(C)(C)C)on5)cc4)ncnc3[nH]2)cc1	0.044	
CC(C)(C)c1cc(NC(=O)Cc2ccc(Nc3ncnc4sccc34)cc2)no1	0.96	GI50 (LC-2-ad [2]): 15.2 µM
O=C(Cc1ccc(Nc2ncnc3[nH]ccc23)cc1)NC1CCC1	3.91	
COc1ccc(-c2cc3c(Nc4ccc(CC(=O)Nc5cc(C(C)(C)C)nn5C)cc4)ncnc3[nH]2)cc1	0.12	
CC(C)(C)c1ccc(-c2cc3c(Nc4ccc(CC(=O)Nc5cc(C(C)(C)C)on5)cc4)ncnc3[nH]2)cc1	13.5	
Cn1cc(-c2cc3c(Nc4ccc(CC(=O)Nc5cc(C(C)(C)C)on5)cc4)ncnc3s2)cn1	0.82	
